System: not given
Test: not given
Settings: medicine alone; cited from earlier work
In the case of `C[C@@H]1CC[C@H]2[C@@H](C)C(=O)O[C@@H]3O[C@@]4(C)CC[C@@H]1[C@]32OO4` [Artemisinin], the “water solubility of the medicine” value is listed as “hardly water-soluble”.

System: not listed separately
Test: Critical mole ratio or critical mass ratio of medicines and beta-cyclodextrin derivative (Table 1, examples)
Type: physicochemical
Settings: not given
Experimental: The critical mole ratio or critical mass ratio in the present invention refers to the mole ratio and mass ratio when complex of organic medicine and beta-cyclodextrin derivatives prepared with the method of this invention is dissolved exactly in water of specified amount to form stable aqueous solution.
The critical value of organic medicine and beta-cyclodextrin derivatives in the present invention, may be determined with the undermentioned unit test method.
(§1) All kinds of mole ratio and mass ratio of the medicine and beta-cyclodextrin derivative is made into complex with expanding loose body according to the method of the present invention, then the set water is added into the a variety of compounding ratio of complex, and by observing properties of the solution, the compounding ratio of exactly dissolving in water and with stable property, acts as the critical mole ratio or critical mass ratio of the present invention.
The critical mole ratio and critical mass ratio in the present invention may be determined with the undermentioned saturated solution method.
Weighing accurately medicine, and placing in the container, and gradually adding beta-cyclodextrin aqueous solution metered accurately with agitation, until the medicine is dissolved exactly and completely in this aqueous solution. Calculate both mass number here and convert it to mole number. Repeat the above-mentioned test, and get the mean mole number of repeated test, and calculate critical mole ratio with the undermentioned formula: Critical mole ratio of medicine=mean mole number of beta-cyclodextrin/mean mole number of medicine
In the case of `C[C@]12CC[C@H]3[C@@H](CCC4=CC(=O)CC[C@@]43C)[C@@H]1CC[C@@H]2O` [testosterone], the “Critical value mole ratio” value was 4.
For `CN1C(=O)CN=C(c2ccccc2)c2cc(Cl)ccc21` [Diazepam], the “Critical value mole ratio” value was 3.

Same assay, conditions: beta-cyclodextrin derivative (hydroxide propyl beta-cyclodextrin in the examples) to medicine; complex dissolves exactly in water to stable solution
For `Clc1ccccc1C(c1ccccc1)(c1ccccc1)n1ccnc1` [Clotrimazole], the “Critical value mole ratio” value was 4.
With `C[C@]12CC[C@H](O)CC1=CC[C@@H]1[C@@H]2CC[C@]2(C)C(=O)CC[C@@H]12` [Prasterone] the “Critical value mole ratio” value was 3.
With `Cc1cc(NS(=O)(=O)c2ccc(N)cc2)no1` [sulfamethoxazole] the “Critical value mole ratio” value was 2.
In the case of `CN1CCC(=C2c3ccccc3CC(=O)c3sccc32)CC1` [ketotifen], the “Critical value Mass ratio” value was 4.
For `CCS(=O)(=O)CCn1c([N+](=O)[O-])cnc1C` [Tinidazole], the “Critical value Mass ratio” value was 6.5.
With `CC(=O)S[C@@H]1CC2=CC(=O)CC[C@]2(C)[C@H]2CC[C@@]3(C)[C@@H](CC[C@@]34CCC(=O)O4)[C@H]12` [spironolactone] the “Critical value mole ratio” value was 3.
For `Cc1noc(NS(=O)(=O)c2ccc(N)cc2)c1C` [sulfafurazole], the “Critical value mole ratio” value was 2.
In the case of `NC(=O)CCCCC1CCSS1` (centres unmarked) [thioctamide], the “Critical value Mass ratio” value was 7.
With `CC(CN1c2ccccc2S(=O)(=O)c2ccccc21)N(C)C` (centres unmarked) [Dioxopromethazine] the “Critical value Mass ratio” value was 2.
For `Cc1ccc(-c2nc3ccc(C)cn3c2CC(=O)N(C)C)cc1` [Zolpidem], the “Critical value mole ratio” value was 2.
For `CCOC(=O)[N-]c1cn(N2CCOCC2)n[o+]1` [molsidomine], the “Critical value Mass ratio” value was 11.
For `CC(=O)N1CCN(c2ccc(OCC3COC(Cn4ccnc4)(c4ccc(Cl)cc4Cl)O3)cc2)CC1` (centres unmarked) [Ketoconazole], the “Critical value mole ratio” value was 3.
With `O=C1Nc2ccc(Cl)cc2C(c2ccccc2Cl)=NC1O` (centres unmarked) [Lorazepam] the “Critical value mole ratio” value was 3.
In the case of `CN(Cc1cc(Br)cc(Br)c1N)C1CCCCC1` [Bromhexine], the “Critical value mole ratio” value was 3.
In the case of `COc1cc(Cc2cnc(N)nc2N)cc(OC)c1OC` [TMP], the “Critical value mole ratio” value was 3.
With Oryzanol the “Critical value Mass ratio” value was 38.
With `CC[C@H](C)C(=O)O[C@H]1C[C@@H](C)C=C2C=C[C@H](C)[C@H](CC[C@@H]3C[C@@H](O)CC(=O)O3)[C@H]21` [Lovastatin] the “Critical value mole ratio” value was 26.
For `CC/C(=C(\c1ccccc1)c1ccc(OCCN(C)C)cc1)c1ccccc1` [Tamoxifen], the “Critical value mole ratio” value was 2.
With `CC(C)Cc1ccc(C(C)C(=O)O)cc1` (centres unmarked) [Ibuprofen] the “Critical value Mass ratio” value was 8.
For `OC(CCCN1CCCCC1)(c1ccccc1)c1ccccc1` [difenidol], the “Critical value mole ratio” value was 1.
For `COc1cc(C=O)ccc1O` [vanillin], the “Critical value Mass ratio” value was 9.
In the case of `CC(=O)O[C@H]1C(=O)[C@@]2(C)[C@H]([C@H](OC(=O)c3ccccc3)[C@]3(O)C[C@H](OC(=O)[C@H](O)[C@@H](NC(=O)c4ccccc4)c4ccccc4)C(C)=C1C3(C)C)[C@]1(OC(C)=O)CO[C@@H]1C[C@@H]2O` [Taxol], the “Critical value mole ratio” value was 100.
For `C[C@]12C=CC(=O)C=C1CC[C@@H]1[C@@H]2C(=O)C[C@@]2(C)[C@H]1CC[C@]2(O)C(=O)CO` [prednisone], the “Critical value mole ratio” value was 4.
With `O=C(O)c1cn(C2CC2)c2cc(N3CCNCC3)c(F)cc2c1=O` [Ciprofloxacin] the “Critical value mole ratio” value was 5.
For `CC1(C)C2CCC1(C)C(O)C2` (centres unmarked) [borneol], the “Critical value Mass ratio” value was 6.
For `Cc1ncc([N+](=O)[O-])n1CCO` [Metronidazole], the “Critical value Mass ratio” value was 9.
In the case of `CC[C@H]1OC(=O)[C@H](C)[C@@H](O[C@H]2C[C@@](C)(OC)[C@@H](O)[C@H](C)O2)[C@H](C)[C@@H](O[C@@H]2O[C@H](C)C[C@H](N(C)C)[C@H]2O)[C@](C)(O)C[C@@H](C)C(=O)[C@H](C)[C@@H](O)[C@]1(C)O` [Erythromycin], the “Critical value mole ratio” value was 6.
In the case of `CC12CCC(CC1=O)C2(C)C` (centres unmarked) [camphor], the “Critical value Mass ratio” value was 8.
With `CC[C@H]1OC(=O)[C@H](C)[C@@H](O[C@H]2C[C@@](C)(OC)[C@@H](O)[C@H](C)O2)[C@H](C)[C@@H](O[C@@H]2O[C@H](C)C[C@H](N(C)C)[C@H]2O)[C@](C)(O)C[C@@H](C)CN(C)[C@H](C)[C@@H](O)[C@]1(C)O` [Azithromycin] the “Critical value mole ratio” value was 16.
For `O=C(O)CCCC[C@@H]1CCSS1` [lipoic acid], the “Critical value mole ratio” value was 1.
For `Cc1ccc(S(=O)(=O)NC(=O)NN2CC3CCCC3C2)cc1` (centres unmarked) [gliclazide], the “Critical value mole ratio” value was 2.
With `COc1cc2c(cc1OC)[C@@H]1Cc3ccc(OC)c(OC)c3CN1CC2` [Rotundine] the “Critical value mole ratio” value was 1.
For `CC[C@H]1OC(=O)[C@H](C)[C@@H](O[C@H]2C[C@@](C)(OC)[C@@H](O)[C@H](C)O2)[C@H](C)[C@@H](O[C@@H]2O[C@H](C)C[C@H](N(C)C)[C@H]2O)[C@](C)(O)C[C@@H](C)/C(=N\OCOCCOC)[C@H](C)[C@@H](O)[C@]1(C)O` [Roxithromycin], the “Critical value mole ratio” value was 18.
For `Cc1nc(C)c(C)nc1C` [ligustrazine], the “Critical value Mass ratio” value was 12.
For `CC(C)(O)C(Cl)(Cl)Cl` [chlorbutanol], the “Critical value Mass ratio” value was 6.
With `NC(N)=Nc1nc(CSCCC(N)=NS(N)(=O)=O)cs1` [famotidine] the “Critical value Mass ratio” value was 9.
With `Clc1ccc(COC(Cn2ccnc2)c2ccc(Cl)cc2Cl)c(Cl)c1` (centres unmarked) [Miconazole] the “Critical value mole ratio” value was 6.
With `CC1CCC(C(C)C)C(O)C1` (centres unmarked) [menthol] the “Critical value mole ratio” value was 2.
For `CCCc1nn(C)c2c(=O)[nH]c(-c3cc(S(=O)(=O)N4CCN(C)CC4)ccc3OCC)nc12` [Sildenafil], the “Critical value mole ratio” value was 2.
With `CCn1cc(C(=O)O)c(=O)c2cc(F)c(N3CCNCC3)cc21` [norfloxacin] the “Critical value Mass ratio” value was 30.
In the case of `CC(C)CC(N(C)C)C1(c2ccc(Cl)cc2)CCC1` (centres unmarked) [Sibutramine], the “Critical value Mass ratio” value was 2.
In the case of `CN1C(C(=O)Nc2ccccn2)=C(O)c2ccccc2S1(=O)=O` [Piroxicam], the “Critical value Mass ratio” value was 15.
With `Clc1ccc2c(c1)C(c1ccccc1)=NCc1nncn1-2` [Estazolam] the “Critical value Mass ratio” value was 20.
With `Cn1c(=O)c2c(ncn2C)n(C)c1=O` [caffein] the “Critical value Mass ratio” value was 4.
For `COc1cc([C@@H]2c3cc4c(cc3[C@@H](O[C@@H]3O[C@@H]5CO[C@@H](C)O[C@H]5[C@H](O)[C@H]3O)[C@H]3COC(=O)[C@H]23)OCO4)cc(OC)c1O` [Etoposide], the “Critical value mole ratio” value was 10.
For `CC1(C)S[C@@H]2[C@H](NC(=O)[C@H](N)c3ccccc3)C(=O)N2[C@H]1C(=O)O` [Ampicilline], the “Critical value mole ratio” value was 3.
With Medicamycin the “Critical value mole ratio” value was 8.
With `C[C@@H]1CC[C@H]2[C@@H](C)C(=O)O[C@@H]3O[C@@]4(C)CC[C@@H]1[C@]32OO4` [Artemisinin] the “Critical value mole ratio” value was 5.
In the case of `CC[C@H]1OC(=O)[C@H](C)[C@@H](O[C@H]2C[C@@](C)(OC)[C@@H](O)[C@H](C)O2)[C@H](C)[C@@H](O[C@@H]2O[C@H](C)C[C@H](N(C)C)[C@H]2O)[C@](C)(OC)C[C@@H](C)C(=O)[C@H](C)[C@@H](O)[C@]1(C)O` [Clarithromycin], the “Critical value mole ratio” value was 18.
In the case of `C[C@H]1[C@H](OC(=O)CCC(=O)O)O[C@@H]2O[C@@]3(C)CC[C@H]4[C@H](C)CC[C@@H]1[C@@]24OO3` [Artesunate], the “Critical value mole ratio” value was 3.
For Artemoter, the “Critical value mole ratio” value was 8.
With `CC(=O)Nc1ccc(O)cc1` [paracetamol] the “Critical value Mass ratio” value was 3.
With `CS(=O)(=O)OCCCCOS(C)(=O)=O` [Busulfan] the “Critical value mole ratio” value was 5.
In the case of `Nc1ccc(S(=O)(=O)Nc2ncccn2)cc1` [sulfadiazine], the “Critical value mole ratio” value was 3.
For `CCN1C[C@]2(OC(=O)c3ccccc3NC(C)=O)CC[C@H](OC)[C@@]34[C@@H]2C[C@@H]([C@@H]13)[C@@]1(O)C[C@H](OC)[C@H]2C[C@@H]4[C@]1(O)[C@H]2OC` [Lappaconitine], the “Critical value mole ratio” value was 2.

System: plasmodium
Test: Medicine efficacy on killing plasmodium in mice infected plasmodium
Type: in vivo
Settings: ED90 of original medicine p.o. relative to its complex iv (complex = 1)
Work on `C[C@@H]1CC[C@H]2[C@@H](C)C(=O)O[C@@H]3O[C@@]4(C)CC[C@@H]1[C@]32OO4` [Artemisinin] yielded an ED90 comparison p.o./iv of 2.13.
In the case of `C[C@H]1[C@H](OC(=O)CCC(=O)O)O[C@@H]2O[C@@]3(C)CC[C@H]4[C@H](C)CC[C@@H]1[C@@]24OO3` [Artesunate], the ED90 comparison p.o./iv was 1.88.

Same assay, conditions: Plasmodium, po, read-out: efficacy (killing) ED50
Molecule `C[C@H]1[C@H](OC(=O)CCC(=O)O)O[C@@H]2O[C@@]3(C)CC[C@H]4[C@H](C)CC[C@@H]1[C@@]24OO3` [Artesunate] has an ED50 of 9.96 mg/kg.

Same assay, conditions: mice infected plasmodium, route of administration po.; read-out: efficacy (killing) ED50
`C[C@@H]1CC[C@H]2[C@@H](C)C(=O)O[C@@H]3O[C@@]4(C)CC[C@@H]1[C@]32OO4` [Artemisinin] showed an ED50 of 19 mg/kg.

System: not listed separately
Test: Critical mole ratio by saturated solution method
Type: physicochemical
Settings: 40% hydroxide propyl beta-cyclodextrin aqueous solution, mean of 3 tests
Experimental: The critical mole ratio and critical mass ratio in the present invention may be determined with the undermentioned saturated solution method. Weighing accurately medicine, and placing in the container, and gradually adding beta-cyclodextrin aqueous solution metered accurately with agitation, until the medicine is dissolved exactly and completely in this aqueous solution. Calculate both mass number here and convert it to mole number. Repeat the above-mentioned test, and get the mean mole number of repeated test, and calculate critical mole ratio with the undermentioned formula: Critical mole ratio of medicine=mean mole number of beta-cyclodextrin/mean mole number of medicine For example, critical mole ratio of Artemisinin and hydroxide propyl beta-cyclodextrin is measured with the undermentioned method: Weight accurately Artemisinin, and grind in tissue grinding device, and place in beaker, and gradually add 40% hydroxide propyl beta-cyclodextrin aqueous solution metered accurately while agitation, until Artemisinin is dissolved exactly and completely in this aqueous solution. Calculate both mass number here and convert it to mole number.
In the case of `C[C@@H]1CC[C@H]2[C@@H](C)C(=O)O[C@@H]3O[C@@]4(C)CC[C@@H]1[C@]32OO4` [Artemisinin], the critical mole ratio was “about 5”.

System: not listed separately
Test: Critical value of complex by unit test method (complexes of various compounding ratio dissolved in set water, solution properties observed)
Type: physicochemical
Settings: hydroxide propyl beta-cyclodextrin to medicine
Experimental: as §1, with “The critical value of organic medicine and beta-cyclodextrin derivatives in the present invention, may be determined with the undermentioned unit test method. All” for “All”
In the case of `C[C@@H]1CC[C@H]2[C@@H](C)C(=O)O[C@@H]3O[C@@]4(C)CC[C@@H]1[C@]32OO4` [Artemisinin], the “critical mass ratio of complex” value was “about 28” and the “critical mole ratio of complex” value was “about 5”.
